Patent US5665760A, “Lyophilized thioxanthenone antitumor agents” (priority 1995, dated 1997)
Counter-ions that a name gives are not always drawn.

What was measured:
Assay type in all cases: in vivo
[1] = test system: pancreatic ductal adenocarcinoma #03; assay: antitumor activity in mice against pancreatic ductal adenocarcinoma #03 (Panc 03); settings: for Weight Loss / Drug Deaths: Table 1, total doses as in E1; for Weight Loss: average body weight 25 g
Protocol: (§1) Representative examples of the invention were tested for antitumor activity in mice according to the following procedure:
(§2) The animals were pooled, implanted subcutaneously with 30 to 60 mg tumor fragments by 12-gauge trocar, and again pooled before unselective distribution to the various treatment and control groups. For early-stage treatment, chemotherapy was started within 1 to 5 days after tumor implantation while the number of cells was relatively small (10^7 to 10^8 cells). For advanced-stage treatment, chemotherapy was delayed until the tumor became relatively large (200 to 300 mg in size). A 300-mg tumor contains approximately 3×10^8 total cells. […] Tumors were measured with a caliper weekly (or twice weekly for the more rapidly growing tumors). Mice were sacrificed when their tumors reached 1500 mg (i.e., before they can cause the animal discomfort). Tumor weights were estimated from two-dimensional measurements.
(§3) The treatment and control groups were measured when the control group tumors reached approximately 700 to 1200 mg in size (Median of Group). The median tumor weight of each group was determined (including zeros). […] A T/C value <10% is considered to indicate highly significant antitumor activity.
(§4) The results are shown in Table I for pancreatic ductal adenocarcinoma #03 and in Table 2 for colon adenocarcinoma #38.

[2] = test system: P388/adriamycin resistant leukemia; assay: P388/adriamycin resistant leukemia, cells implanted i.v.
[3] = test system: colon adenocarcinoma #38; assay: antitumor activity in mice against colon adenocarcinoma #38
Protocol: as §1, §2, §3, §4

[4] = 10^5 cells, 150 mg/kg total, i.v. 3 hour infusion days 1, 4
[5] = 10^5 cells, 300 mg/kg total, i.v. 3 hour infusion days 1, 4
[6] = 10^5 cells, 450 mg/kg total, i.v. 3 hour infusion days 1, 4
[7] = Mus musculus, ip, read-out: T/C
[8] = Table 2, i.p., total dose mg/kg by Example: 10:340, 11:518
[9] = Table 2, p.o., total dose mg/kg by Example: 10:460, 11:885
[10] = Table 2, p.o., total dose mg/kg by Example: 10:740, 11:1709
[11] = Table 2, total dose 160 mg/kg i.p.
[12] = Table 2, total dose 200 mg/kg i.p.
[13] = Table 2, total dose 865 mg/kg i.p.
[14] = 10^5 cells, 200 mg/kg total, i.v. 3 hour infusion days 1, 4
[15] = 10^5 cells, 320 mg/kg total, i.v. 3 hour infusion days 1, 4
[16] = 10^5 cells, 520 mg/kg total, i.v. 3 hour infusion days 1, 4
[17] = Table 2, total dose 327 mg/kg, i.v. days 3-6 and p.o. days 7-10
[18] = Table 2, total dose 529 mg/kg, i.v. days 3-6 and p.o. days 7-10
[19] = Table 2, total dose 852 mg/kg, i.v. days 3-6 and p.o. days 7-10
[20] = Table 2, i.v., total dose mg/kg by Example: 6:82, 16(a):690, 18(e):120
[21] = 10^6 cells, 76 mg/kg total, i.v. […] infusion day 1
[22] = 10^6 cells, 123 mg/kg total, i.v. […] infusion day 1
[23] = 10^6 cells, 198 mg/kg total, i.v. […] infusion day 1
[24] = 10^6 cells, 320 mg/kg total, i.v. […] infusion day 1

SMILES: CCN(C=O)Cc1ccc(NCCN(CC)CC)c2c(=O)c3ccccc3sc12 [Example 13, N-[[1-[[2-(Diethylamino)ethyl]amino]-9-oxothioxanthen-4-yl]methyl]-N-ethylformamide]
- T/C [1]: 0%
- Weight Loss [1]: 2.4 g
- Drug Deaths [1]: 0
- Drug Deaths [2, 4]: 0/8
- Wt. Loss at Nadir [2, 4]: -1.75 g/mouse
- Drug Deaths [2, 5]: 0/7
- Wt. Loss at Nadir [2, 5]: -1.75 g/mouse
- Drug Deaths [2, 6]: 2/7
- Wt. Loss at Nadir [2, 6]: -3.0 g/mouse
- % ILS (percentage increase in lifespan) ([2]; iv, 150 mg/kg, 3 h): 8%
- Log10 Tumor cell kill ([2]; iv, 150 mg/kg, 3 h): 0.5
- Tumor Cell ([2]; iv, 300 mg/kg): 0/7
- % ILS (percentage increase in lifespan) ([2]; iv, 300 mg/kg, 3 h): 15%
- Log10 Tumor cell kill ([2]; iv, 300 mg/kg, 3 h): 1.0
- Tumor Cell ([2]; iv, 450 mg/kg): 0/7
- % ILS (percentage increase in lifespan) ([2]; iv, 450 mg/kg, 3 h): 38%
- Log10 Tumor cell kill ([2]; iv, 450 mg/kg, 3 h): 2.5

SMILES: CCN(CC)CCNc1ccc(CNC(C)=O)c2sc3ccccc3c(=O)c12 [Example 10, N-[[1-[[2-(Diethylamino)ethyl]amino]-9-oxo-thioxanthen-4-yl]methyl]acetamide]
- response vs control in vivo at 160 mg/kg [3, 7]: 22%
- response vs control in vivo at 200 mg/kg [3, 7]: 24%
- response vs control in vivo at 865 mg/kg [3, 7]: 23%
- Drug Deaths [3, 8]: 0
- Weight Loss [3, 8]: 4.0 g
- Drug Deaths [3, 9]: 0
- Weight Loss [3, 9]: 1.2 g
- Drug Deaths [3, 10]: 2/5
- Weight Loss [3, 10]: 4.0 g
- Drug Deaths [3, 11]: 0
- Weight Loss [3, 11]: 0.6 g
- Drug Deaths [3, 12]: 0
- Weight Loss [3, 12]: 2.3 g
- Drug Deaths [3, 13]: 0
- Weight Loss [3, 13]: 2.0 g
- Weight Loss [1]: 2.4 g
- Drug Deaths [1]: 0
- Drug Deaths [2, 14]: 0/7
- Wt. Loss at Nadir [2, 14]: -1.5 g/mouse
- Drug Deaths [2, 15]: 0/5
- Wt. Loss at Nadir [2, 15]: -1.75 g/mouse
- Drug Deaths [2, 16]: 3/7
- Wt. Loss at Nadir [2, 16]: -3.75 g/mouse
- Tumor Cell ([2]; iv, 200 mg/kg): 0/7
- % ILS (percentage increase in lifespan) ([2]; iv, 200 mg/kg, 3 h): 8%
- Log10 Tumor cell kill ([2]; iv, 200 mg/kg, 3 h): 0.5
- Tumor Cell ([2]; iv, 320 mg/kg): 0/5
- % ILS (percentage increase in lifespan) ([2]; iv, 320 mg/kg, 3 h): 23%
- Log10 Tumor cell kill ([2]; iv, 320 mg/kg, 3 h): 1.5
- % ILS (percentage increase in lifespan) ([2]; iv, 520 mg/kg, 3 h): 54%
- Log10 Tumor cell kill ([2]; iv, 520 mg/kg, 3 h): 3.5

SMILES: CCN(CC)CCNc1ccc(CN(CC)S(C)(=O)=O)c2sc3ccccc3c(=O)c12 [Example 25, N-[[1-[[2-(Diethylamino)ethyl]amino]-9-oxothioxanthen-4-yl]methyl]-N-ethyl-methanesulfonamide]
- response vs control in vivo at 327 mg/kg ([3]; Mus musculus, read-out: T/C): 0%
- response vs control in vivo at 529 mg/kg ([3]; Mus musculus, read-out: T/C): 0%
- response vs control in vivo at 852 mg/kg ([3]; Mus musculus, read-out: T/C): 0%
- Drug Deaths [3, 17]: 0
- Weight Loss [3, 17]: 0.8 g
- Drug Deaths [3, 18]: 0
- Weight Loss [3, 18]: 0.6 g
- Drug Deaths [3, 19]: 4/5
- Weight Loss [3, 19]: 4.8 g
- T/C [1]: 0%
- Weight Loss [1]: 4.6 g
- Drug Deaths [1]: 0

SMILES: CN(C)CCNc1ccc(CN)c2sc3ccccc3c(=O)c12 [18(e), 4-(Aminomethyl)-l-[[2-dimethylamino)ethyl]amino]-9-oxothioxanthen-9-one dihydrochloride·1/2 hydrate]
- Drug Deaths ([3]; Table 2, i.v., total dose mg/kg by Example: 2:600, 5:960, 6:132, 7:840, 16(a):1000, 18(e):180): 4/5
- Drug Deaths [3, 20]: 0
- Weight Loss [3, 20]: 1.0 g
- Weight Loss ([3]; mouse, in vivo, iv): 2.2 g
- Weight Loss [1]: 1.0 g
- Drug Deaths [1]: 0

SMILES: CCN(CC)CCNc1ccc(CNC(=O)c2ccccc2)c2sc3ccccc3c(=O)c12 [Example 11, N-[[1-[[2-(Diethylamino)ethyl]amino]-9-oxothioxanthen-4-yl]methyl]benzamide]
- Drug Deaths [3, 8]: 0
- Weight Loss [3, 8]: 0.8 g
- Drug Deaths [3, 9]: 0
- Weight Loss [3, 9]: 0.8 g
- Drug Deaths [3, 10]: 0
- Weight Loss [3, 10]: 2.0 g
- T/C ([3]; ip): 39%
- T/C ([3]; po): 0%
- T/C [1]: 0%
- Weight Loss [1]: 0.8 g
- Drug Deaths [1]: 0

SMILES: CCN(CC)CCNc1ccc(CNC(=O)OC)c2sc3ccccc3c(=O)c12 [Example 34, Methyl N-[[1-[[2-(diethylamino)ethyl]amino]-9-oxothioxanthen-4-yl]methyl]carbamate]
- Weight Loss [1]: 3.6 g
- Drug Deaths [1]: 0
- Drug Deaths [2, 21]: 0/5
- Wt. Loss at Nadir [2, 21]: -0.4 g/mouse
- Drug Deaths [2, 22]: 0/5
- Wt. Loss at Nadir [2, 22]: -1.2 g/mouse
- Drug Deaths [2, 23]: 0/5
- Wt. Loss at Nadir [2, 23]: -1.2 g/mouse
- % ILS (percentage increase in lifespan) [2, 24]: toxic
- Drug Deaths [2, 24]: 5/5
- Log10 Tumor cell kill [2, 24]: LD100
- Wt. Loss at Nadir [2, 24]: -3.6 g/mouse
- % ILS (percentage increase in lifespan) ([2]; iv, 76 mg/kg): 0%
- Log10 Tumor cell kill ([2]; iv, 76 mg/kg): 0
- Tumor Cell ([2]; iv, 76 mg/kg): 0/5
- % ILS (percentage increase in lifespan) ([2]; iv, 123 mg/kg): 8.3%
- Log10 Tumor cell kill ([2]; iv, 123 mg/kg): 0.7
- Tumor Cell ([2]; iv, 123 mg/kg): 0/5
- % ILS (percentage increase in lifespan) ([2]; iv, 198 mg/kg): 41.7%
- Log10 Tumor cell kill ([2]; iv, 198 mg/kg): 3.3
- Tumor Cell ([2]; iv, 198 mg/kg): 0/5
- Tumor Cell ([2]; iv, 320 mg/kg): 0/5
